Experimental data as given in PubChem BioAssay (NCI).
Where “and” joins values, the source holds several entries; their conditions need not be identical. Equal entries are not always repeated.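 Compound exposure: 48 hours, 5 concentrations, 96-well plates. Here, GI50 denotes the concentration required for 50% inhibition of growth. TGI denotes the concentration required for complete inhibition of growth.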

How the values were obtained:
Test in all cases: inhibition of tumour cell growth, NCI panel, 48 h
NCI-H23 lung = test system: NCI-H23 lung
KM12 colon = test system: KM12 colon
SF-295 CNS = test system: SF-295 CNS
T-47D breast = test system: T-47D breast
NCI/ADR-RES ovarian = test system: NCI/ADR-RES ovarian
HOP-62 NSCLC = test system: HOP-62 NSCLC
SN12C renal = test system: SN12C renal

Structure (SMILES)	TGI (NCI-H23 lung) [µM]	TGI (KM12 colon) [µM]	TGI (SF-295 CNS) [µM]	TGI (T-47D breast) [µM]	TGI (NCI/ADR-RES ovarian) [µM]	TGI (HOP-62 NSCLC)	TGI (SN12C renal) [µM]	GI50 (NCI-H23 lung)	GI50 (KM12 colon)	GI50 (SF-295 CNS)	GI50 (T-47D breast)	GI50 (NCI/ADR-RES ovarian)	GI50 (HOP-62 NSCLC)	GI50 (SN12C renal)
CC(=C/C=C/C=C(C)\C=C\C=C(\C)C(=O)O)/C=C/C=C(/C)C(=O)O	> 100	> 100	> 100	> 100	> 100	> 100 µM	> 100	–	–	–	–	–	–	–
Cc1cc(O)cc2c1[C@]1(C)CCC3C(C)(C)CCC[C@]3(C)[C@H]1C2 (some centres not stated)	42	35.3	36	43.3	39.8	35.5 µM	32.3	22.5 µM	20 µM	20.3 µM	16.7 µM	21.4 µM	20.6 µM	17.2 µM
COc1cccc(/C=C/[N+](=O)[O-])c1	12.6	7.35	13.4	9.6	97.8	26.6 µM	37.2	3.21 µM	2.54 µM	3.07 µM	2.51 µM	26.2 µM	12.8 µM	15.2 µM
COc1ccc(-c2oc(=O)ccc2-c2cc(OC)c(OC)c(OC)c2)cc1O	> 100	> 48.7	> 100	> 100	> 100	> 100 µM	> 100	3.91 µM	0.507 µM	1.26 µM	0.553 µM	1.48 µM	5.37 µM	6.4 µM
O=c1cc(N2CCN(CCCCCOc3cc(O)c4c(=O)cc(-c5ccccc5)oc4c3)CC2)c2ccccc2o1	0.475	> 100	> 100	> 100	> 100	> 100 µM	> 100	0.218 µM	77.8 µM	> 100 µM	> 100 µM	74.2 µM	> 100 µM	45.4 µM
Cc1nc2sc(C(=O)Nc3cccc4ccccc34)c(N)c2cc1C(O)c1ccccc1 (configuration not stated)	15.3	1.73	4.42	88.6	0.968	19.1 µM	9.49	0.104 µM	0.044 µM	0.0513 µM	0.0527 µM	0.0373 µM	0.081 µM	0.0971 µM
C#CC1(OC(C)=O)CCC2C3CC=C4C=C(OC(C)=O)CCC4(C)C3CCC21C (configuration not stated)	47.1	40.2	62	> 100	79.3	> 100 µM	45.1	–	–	–	–	–	–	–
C=C1C(C2(C)C(OC(C)=O)CC(=O)OC(C)(COC(C)=O)C2CC(=O)OC)C(OC=O)C(OC(=O)C(O)C(C)CC)C2(C)C(c3ccoc3)CC(=O)C12O (configuration not stated)	> 100	> 100	> 100	> 100	> 100	> 100 µM	> 100	–	–	–	–	–	–	–
C/C(=N\Nc1cc(C)c2ccccc2n1)c1ccccn1	8.49	1.76	0.499	2.78	1.42	1.37 µM	7.57	0.172 µM	0.0789 µM	–	< 0.0208 µM	0.0717 µM	0.07 µM	0.0762 µM
O=C1c2ccccc2-c2oc(=O)c3ccccc3c21	> 100	> 100	> 100	> 100	> 100	> 100 µM	> 100	–	–	–	–	–	–	–
COc1cc2c(cc1OC)-c1ccc3cc4c(cc3c1N(CCCn1ccnc1)C2)OCO4	21.3	31.8	75.6	4.27	> 100	13.6 µM	16.9	2.23 µM	6.05 µM	2.8 µM	0.358 µM	> 100 µM	2.03 µM	0.382 µM
C=C(CN1CCN(c2cccc(C(F)(F)F)n2)CC1)c1ccc(C(=O)Nc2ccccc2N)cc1	> 100	> 100	–	> 100	> 100	21.4 µM and 7.51 µM	> 100	14.1 µM and 1.8 µM	0.668 µM and 0.455 µM	0.387 µM and 0.191 µM	3.01 µM and 0.616 µM	0.641 µM and 0.4 µM	2.21 µM and 0.877 µM	3.79 µM and 0.797 µM
Cc1ccc2c(-c3ccnc(Nc4ccccc4)n3)c(-c3ccc(F)cc3)nn2n1	> 25	> 25	> 25	> 25	> 25	> 25 µM	> 25	8.25 µM	7.05 µM	11.3 µM	7.45 µM	6.64 µM	19.4 µM	4.85 µM
CNC(=O)c1ccc(N2C(=S)N(c3ccc(C#N)c(C(F)(F)F)c3)C(=O)C2(C)C)cc1F	> 89.6	> 91.1	> 75.9	97	> 100	> 67.2 µM	> 100	30.2 µM	48.1 µM	28.9 µM	27.9 µM	33.3 µM	25.1 µM	38.6 µM
CC(=O)N1C/C(=C/c2ccc(Cl)cc2)C(=O)/C(=C/c2ccc(Cl)cc2)C1	3.67	0.676	3.02	3.24	12.6	1.25 µM	2.24	1.5 µM	0.255 µM	1.08 µM	1.31 µM	2.56 µM	0.516 µM	0.72 µM
C[C@]12CC[C@@H]3c4cc(-c5ccc(F)cc5)c(O)cc4CC[C@H]3[C@@H]1CC[C@@H]2O	37.8	20.9	17.6	24.6	65.9	28.3 µM	22.4	13.8 µM	6.49 µM	3.98 µM	4.52 µM	6.95 µM	11.2 µM	10 µM
Cc1ccc(Cc2cnc(NC(=O)/C=C/c3cccc(C)c3)s2)cc1	> 50.1	> 48.4	0.558	> 100	2.06	9.3 µM	> 56	0.322 µM	0.14 µM	0.0786 µM	0.577 µM	0.135 µM	0.238 µM	0.393 µM
CNC(=S)NC(=O)c1c(Cl)n(C(=O)OC(C)(C)C)c2ccccc12	> 100	> 100	> 100	> 100	> 100	> 100 µM	> 100	53.1 µM	77.4 µM	56.4 µM	44.1 µM	47.8 µM	> 100 µM	72.8 µM
